Assay results from patent publication US20150176022A1, “HERBICIDE-RESISTANT SUNFLOWER PLANTS, POLYNUCLEOTIDES ENCODING HERBICIDE=RESISTANT ACETO HYDROXY ACID SYNTHASE LARGE SUBUNIT PROTEINS, AND METHODS OF USE” (priority 2013, published 2015).
Values joined by “and” are separate entries in the source; they are usually repeats but may differ in a detail not shown here. Equal entries are not always repeated.

Tests used:
Type in all cases: in vivo, Helianthus annuus
[1] = system: sunflower genotypes carrying the A122T mutation event; assay: Greenhouse whole-plant imazapir dose response (Example 8), group mean; settings: 14 DAT; for biomass, Dif with control (reduction), A122T / plant height, Dif with Control (height reduction), A122T / root dry weight, Dif with control (reduction), A122T: A122T mean; for biomass accumulation (% of untreated), Mean A122T / plant height (% of untreated), Mean A122T / root dry weight (% of untreated), Mean A122T: mean of six A122T genotypes; for Phytotoxicity Index, Mean A122T: mean of three A122T genotypes
Experimental: (§1) A greenhouse study was conducted to quantify and contrast the imazapir sensitivity of the mutants A122T and A205V in different genetic backgrounds at the whole plant level in sunflower. Seeds of the different sunflower lines that were used in this study were obtained under field conditions.
(§2) Seeds were sown in Petri dishes and, after germination, plantlets were transplanted to pots of 10 cm of diameter in a potting media consisting of equal parts of vermiculite, soil and sand. Plants were grown in a greenhouse under natural light conditions supplemented with 400 W sodium halide lamps to provide a 16 hrs daylength. Day/night temperatures were 25 and 20° C., respectively. At the V2 stage 10 plants of each genotype were randomly assigned to each treatment consisting of […] imazapir doses (0, 40, 80, 160, 240, 320, 400 and 480 g ai/ha), and a zero-time biomass determination. Experiment was arranged as a randomized block design with a full factorial (sunflower line×treatment) arrangement of treatments and 10 replications.
(§3) On the day of herbicide application ten plants of each genotype were cut at the cotyledonal node and dried at 60° C. for 48 hrs zero-time for dried weight determination. […] Height was determined as the distance between the cotyledonal node and the apex of each plant. For root biomass determination, each plant was taken from the pot and the potting media was washed out from the roots. Above ground biomass data from each line were converted to biomass accumulation after application by subtracting the appropriate average zero-time biomass from each sample. Dry biomass data were converted to percentages of the untreated control plants within each line to allow direct comparisons between groups.

[2] = system: sunflower genotypes carrying the A205V mutation event; assay: as above; settings: 14 DAT; for biomass, Dif with control (reduction), A205V / plant height, Dif with Control (height reduction), A205V / root dry weight, Dif with control (reduction), A205V: A205V mean; for biomass accumulation (% of untreated), Mean A205V / root dry weight (% of untreated), Mean A205V / plant height (% of untreated), Mean A205V: mean of six A205V genotypes; for Phytotoxicity Index, Mean A205V: mean of three A205V genotypes
Experimental: as §1, §2, §3

[3] = system: M2 plants of EMS-treated BTK47; assay: Selection of imidazolinone-resistant M2 plants (Example 1); settings: approximately 590,000 M2 plants sprayed at V2-V4 stage; 80 g ai/ha; greenhouse
Experimental: BTK47, a Helianthus annuus L. breeding line, was chemically mutated as follows. Sixty thousand seeds of the BTK47 line were treated with a solution of ethyl methanesulfonate (EMS) for 15 hours. The treated seeds were then sown under field conditions on Dec. 16, 2002 at Nidera Experimental Station in Venado Tuerto, Santa Fe, Argentina. Approximately 30,000 M1 plants flowered and were covered with bags in order to self-pollinate each plant. Each plant was harvested and threshed by hand. On May 10, 2003 at Nidera Experimental Station in Formosa, 20 M2 seeds from each capitulum were sown under greenhouse conditions. Approximately 590,000 plants were sprayed at V2-V4 stage with imazapyr at a rate of 80 g ai/ha. […] M3 seeds from each of these eight plants were evaluated for their resistance to imazapyr. Out of these eight M3 families, one family (S4897) segregated for herbicide resistance at a ratio of 1 resistant (i.e., conferring tolerance to commercial rates of imidazolinone herbicides): 2 intermediate (i.e., partially resistant): 1 susceptible. Fully fertile resistant plants were self pollinated and harvested in order to propagate the line S4897.

SMILES: CC(C)C1(C)N=C(c2ncccc2C(=O)O)NC1=O (centres unmarked) [imazapir, imazapyr]
- biomass, Dif with control (reduction), A122T ([1]; 0.5× (40 g ai/ha)): 1.1%
- plant height, Dif with Control (height reduction), A122T ([1]; 0.5× (40 g ai/ha)): 0.6%
- root dry weight, Dif with control (reduction), A122T ([1]; 0.5× (40 g ai/ha)): 0.1%
- biomass, Dif with control (reduction), A122T ([1]; 1× (80 g ai/ha)): 3.2%
- plant height, Dif with Control (height reduction), A122T ([1]; 1× (80 g ai/ha)): 1.4%
- root dry weight, Dif with control (reduction), A122T ([1]; 1× (80 g ai/ha)): 2.5%
- biomass, Dif with control (reduction), A122T ([1]; 2× (160 g ai/ha)): 5.1%
- plant height, Dif with Control (height reduction), A122T ([1]; 2× (160 g ai/ha)): 2.7%
- root dry weight, Dif with control (reduction), A122T ([1]; 2× (160 g ai/ha)): 5.9%
- biomass, Dif with control (reduction), A122T ([1]; 3× (240 g ai/ha)): 7.2%
- plant height, Dif with Control (height reduction), A122T ([1]; 3× (240 g ai/ha)): 4.4%
- root dry weight, Dif with control (reduction), A122T ([1]; 3× (240 g ai/ha)): 10.6%
- biomass, Dif with control (reduction), A122T ([1]; 4× (320 g ai/ha)): 12.2%
- plant height, Dif with Control (height reduction), A122T ([1]; 4× (320 g ai/ha)): 6.3%
- root dry weight, Dif with control (reduction), A122T ([1]; 4× (320 g ai/ha)): 18.6%
- biomass, Dif with control (reduction), A122T ([1]; 5× (400 g ai/ha)): 20.7%
- plant height, Dif with Control (height reduction), A122T ([1]; 5× (400 g ai/ha)): 10.2%
- root dry weight, Dif with control (reduction), A122T ([1]; 5× (400 g ai/ha)): 21.3%
- biomass, Dif with control (reduction), A122T ([1]; 6× (480 g ai/ha)): 25% and 25.4%
- plant height, Dif with Control (height reduction), A122T ([1]; 6× (480 g ai/ha)): 15.8%
- root dry weight, Dif with control (reduction), A122T ([1]; 6× (480 g ai/ha)): 38.3%
- biomass accumulation (% of untreated), Mean A122T ([1]; 0.5× (40 g ai/ha)): 98.9%
- plant height (% of untreated), Mean A122T ([1]; 0.5× (40 g ai/ha)): 99.4%
- root dry weight (% of untreated), Mean A122T ([1]; 0.5× (40 g ai/ha)): 99.9%
- biomass accumulation (% of untreated), Mean A122T ([1]; 1× (80 g ai/ha)): 96.8%
- plant height (% of untreated), Mean A122T ([1]; 1× (80 g ai/ha)): 98.6%
- root dry weight (% of untreated), Mean A122T ([1]; 1× (80 g ai/ha)): 97.5%
- biomass accumulation (% of untreated), Mean A122T ([1]; 2× (160 g ai/ha)): 94.9%
- plant height (% of untreated), Mean A122T ([1]; 2× (160 g ai/ha)): 97.3%
- root dry weight (% of untreated), Mean A122T ([1]; 2× (160 g ai/ha)): 94.1%
- biomass accumulation (% of untreated), Mean A122T ([1]; 3× (240 g ai/ha)): 92.8%
- plant height (% of untreated), Mean A122T ([1]; 3× (240 g ai/ha)): 95.6%
- root dry weight (% of untreated), Mean A122T ([1]; 3× (240 g ai/ha)): 89.4%
- biomass accumulation (% of untreated), Mean A122T ([1]; 4× (320 g ai/ha)): 87.8%
- plant height (% of untreated), Mean A122T ([1]; 4× (320 g ai/ha)): 93.7%
- root dry weight (% of untreated), Mean A122T ([1]; 4× (320 g ai/ha)): 81.4%
- biomass accumulation (% of untreated), Mean A122T ([1]; 5× (400 g ai/ha)): 79.3%
- plant height (% of untreated), Mean A122T ([1]; 5× (400 g ai/ha)): 89.8%
- root dry weight (% of untreated), Mean A122T ([1]; 5× (400 g ai/ha)): 78.7%
- biomass accumulation (% of untreated), Mean A122T ([1]; 6× (480 g ai/ha)): 74.6%
- plant height (% of untreated), Mean A122T ([1]; 6× (480 g ai/ha)): 84.2%
- root dry weight (% of untreated), Mean A122T ([1]; 6× (480 g ai/ha)): 61.7%
- Phytotoxicity Index, Mean A122T ([1]; 0.5× (40 g ai/ha)): 0.3
- Phytotoxicity Index, Mean A122T ([1]; 1× (80 g ai/ha)): 0.3
- Phytotoxicity Index, Mean A122T ([1]; 2× (160 g ai/ha)): 0.3
- Phytotoxicity Index, Mean A122T ([1]; 3× (240 g ai/ha)): 0.3
- Phytotoxicity Index, Mean A122T ([1]; 4× (320 g ai/ha)): 0.5
- Phytotoxicity Index, Mean A122T ([1]; 5× (400 g ai/ha)): 0.8
- Phytotoxicity Index, Mean A122T ([1]; 6× (480 g ai/ha)): 1.2
- biomass, Dif with control (reduction), A205V ([2]; 0.5× (40 g ai/ha)): 5.5%
- plant height, Dif with Control (height reduction), A205V ([2]; 0.5× (40 g ai/ha)): 5.6%
- root dry weight, Dif with control (reduction), A205V ([2]; 0.5× (40 g ai/ha)): 12.8%
- biomass, Dif with control (reduction), A205V ([2]; 1× (80 g ai/ha)): 17.8%
- plant height, Dif with Control (height reduction), A205V ([2]; 1× (80 g ai/ha)): 10.8%
- root dry weight, Dif with control (reduction), A205V ([2]; 1× (80 g ai/ha)): 29.2%
- biomass, Dif with control (reduction), A205V ([2]; 2× (160 g ai/ha)): 38.4%
- plant height, Dif with Control (height reduction), A205V ([2]; 2× (160 g ai/ha)): 30.8%
- root dry weight, Dif with control (reduction), A205V ([2]; 2× (160 g ai/ha)): 49.4%
- biomass, Dif with control (reduction), A205V ([2]; 3× (240 g ai/ha)): 52.4%
- plant height, Dif with Control (height reduction), A205V ([2]; 3× (240 g ai/ha)): 49.6%
- root dry weight, Dif with control (reduction), A205V ([2]; 3× (240 g ai/ha)): 60.8%
- biomass, Dif with control (reduction), A205V ([2]; 4× (320 g ai/ha)): 64.6%
- plant height, Dif with Control (height reduction), A205V ([2]; 4× (320 g ai/ha)): 66.3%
- root dry weight, Dif with control (reduction), A205V ([2]; 4× (320 g ai/ha)): 68.9%
- biomass, Dif with control (reduction), A205V ([2]; 5× (400 g ai/ha)): 67.6%
- plant height, Dif with Control (height reduction), A205V ([2]; 5× (400 g ai/ha)): 68.0%
- root dry weight, Dif with control (reduction), A205V ([2]; 5× (400 g ai/ha)): 69.3%
- biomass, Dif with control (reduction), A205V ([2]; 6× (480 g ai/ha)): 70.0%
- plant height, Dif with Control (height reduction), A205V ([2]; 6× (480 g ai/ha)): 68.9% and 69.8%
- root dry weight, Dif with control (reduction), A205V ([2]; 6× (480 g ai/ha)): 75.6%
- biomass accumulation (% of untreated), Mean A205V ([2]; 0.5× (40 g ai/ha)): 94.5%
- root dry weight (% of untreated), Mean A205V ([2]; 0.5× (40 g ai/ha)): 87.2%
- biomass accumulation (% of untreated), Mean A205V ([2]; 1× (80 g ai/ha)): 82.2%
- root dry weight (% of untreated), Mean A205V ([2]; 1× (80 g ai/ha)): 70.8%
- biomass accumulation (% of untreated), Mean A205V ([2]; 2× (160 g ai/ha)): 61.6%
- plant height (% of untreated), Mean A205V ([2]; 2× (160 g ai/ha)): 69.2%
- root dry weight (% of untreated), Mean A205V ([2]; 2× (160 g ai/ha)): 50.6%
- biomass accumulation (% of untreated), Mean A205V ([2]; 3× (240 g ai/ha)): 47.6%
- plant height (% of untreated), Mean A205V ([2]; 3× (240 g ai/ha)): 50.4%
- root dry weight (% of untreated), Mean A205V ([2]; 3× (240 g ai/ha)): 39.2%
- biomass accumulation (% of untreated), Mean A205V ([2]; 4× (320 g ai/ha)): 35.4%
- plant height (% of untreated), Mean A205V ([2]; 4× (320 g ai/ha)): 33.7%
- root dry weight (% of untreated), Mean A205V ([2]; 4× (320 g ai/ha)): 31.1%
- biomass accumulation (% of untreated), Mean A205V ([2]; 5× (400 g ai/ha)): 32.4%
- plant height (% of untreated), Mean A205V ([2]; 5× (400 g ai/ha)): 32.0%
- root dry weight (% of untreated), Mean A205V ([2]; 5× (400 g ai/ha)): 30.7%
- biomass accumulation (% of untreated), Mean A205V ([2]; 6× (480 g ai/ha)): 30.0%
- plant height (% of untreated), Mean A205V ([2]; 6× (480 g ai/ha)): 30.2%
- root dry weight (% of untreated), Mean A205V ([2]; 6× (480 g ai/ha)): 24.4%
- Phytotoxicity Index, Mean A205V ([2]; 2× (160 g ai/ha)): 2.2
- Phytotoxicity Index, Mean A205V ([2]; 3× (240 g ai/ha)): 5.1
- Phytotoxicity Index, Mean A205V ([2]; 4× (320 g ai/ha)): 7.4
- Phytotoxicity Index, Mean A205V ([2]; 5× (400 g ai/ha)): 8.2
- Phytotoxicity Index, Mean A205V ([2]; 6× (480 g ai/ha)): 8.2
- plants surviving the herbicide treatment [3]: Eight plants survived
